Four compounds from PMC2935846 (Journal of the American Chemical Society, 2009) can be followed below.

For one assay, the system named is E. coli cells. The assay is described as follows: SYTOX Green uptake. To be noted: 5 μM peptide; for SYTOX Green influx into E. coli (in words): E. coli cells in PBS.
A short description of assay [1]: Leakage of terbium from lipid vesicles. To be noted: peptide:lipid 1:100, method as in earlier work.
Assay [2] deals with E. coli cytoplasmic membrane. The assay is described as follows: Membrane depolarization, diSC3. To be noted: E. coli 2 × 10^7 cells/mL, 50 nM diSC3(5). The assay is classed as cell-based, Escherichia coli.
The subject of another assay is C. neoformans cells. The assay is described as follows: SYTOX Green uptake. The following applies: 5 μM peptide, 2 × 10^7 cells/mL in PBS, 1 μM SYTOX Green. Format: cell-based, Cryptococcus neoformans.

Structures are written as SMILES. A value given as a limit tells only on which side of the number the result lay.

On to `CC[C@H](C)[C@H](N)C(=O)N[C@@H](CC(C)C)C(=O)N1CCC[C@H]1C(=O)N[C@@H](Cc1c[nH]c2ccccc12)C(=O)N[C@@H](CCCCN)C(=O)N[C@@H](Cc1c[nH]c2ccccc12)C(=O)N1CCC[C@H]1C(=O)N[C@@H](Cc1c[nH]c2ccccc12)C(=O)N[C@@H](Cc1c[nH]c2ccccc12)C(=O)N1CCC[C@H]1C(=O)N[C@@H](Cc1c[nH]c2ccccc12)C(=O)N[C@@H](CCCNC(=N)N)C(=O)N[C@@H](CCCNC(=N)N)C(N)=O` [Indolicidin], for which the “SYTOX Green influx into E. coli (in words)” value in the assay with E. coli cells is on record as “only a very small amount of dye influx”. Also, the “% of Tb leakage, P:L 1:100” value in assay [1] was 8%.

Turning to `CC[C@H](C)[C@H](NC(=O)CN)C(=O)NCC(=O)N[C@@H](C)C(=O)N[C@H](C(=O)N[C@@H](CC(C)C)C(=O)N[C@@H](CCCCN)C(=O)N[C@H](C(=O)N[C@@H](CC(C)C)C(=O)N[C@H](C(=O)N[C@H](C(=O)NCC(=O)N[C@@H](CC(C)C)C(=O)N1CCC[C@H]1C(=O)N[C@@H](C)C(=O)N[C@@H](CC(C)C)C(=O)N[C@H](C(=O)N[C@@H](CO)C(=O)N[C@@H](Cc1c[nH]c2ccccc12)C(=O)N[C@H](C(=O)N[C@@H](CCCCN)C(=O)N[C@@H](CCCNC(=N)N)C(=O)N[C@@H](CCCCN)C(=O)N[C@@H](CCCNC(=N)N)C(=O)N[C@@H](CCC(N)=O)C(=O)N[C@@H](CCC(N)=O)C(N)=O)[C@@H](C)CC)[C@@H](C)CC)[C@@H](C)O)[C@@H](C)O)C(C)C)C(C)C` [Melittin], the “time of membrane potential dissipation” value in assay [2] (5 μM peptide, 25°C) is listed as “less than 30 seconds”. Further, in the assay on E. coli cells (E. coli in PBS), the “time to 50% of the maximum SYTOX Green uptake” value is “about 15 minutes” and the “time to complete SYTOX Green leakage” value was at most 25 min. For the same compound, the “% of Tb leakage, P:L 1:100” value in assay [1] worked out at 100%. In addition, in the assay on C. neoformans cells, the “permeabilization of fungal cells, SYTOX Green (in words)” value was “completely permeabilizes the fungal cells in just a few minutes”.

In the case of `CC1(C)S[C@@H]2[C@H](NC(=O)[C@H](N)c3ccccc3)C(=O)N2[C@H]1C(=O)O` [ampicillin], in the assay on E. coli cells, the “SYTOX Green influx into E. coli (in words)” value is “no effect”.

Turning to `CC(C)[C@@H]1NC(=O)[C@H](C)OC(=O)[C@@H](C(C)C)NC(=O)[C@@H](C(C)C)OC(=O)[C@H](C(C)C)NC(=O)[C@H](C)OC(=O)[C@@H](C(C)C)NC(=O)[C@@H](C(C)C)OC(=O)[C@H](C(C)C)NC(=O)[C@H](C)OC(=O)[C@@H](C(C)C)NC(=O)[C@@H](C(C)C)OC1=O` [valinomycin], the “collapse of the membrane potential (in words)” value in assay [2] (40 μM) is recorded as “Complete collapse of the membrane potential”.
